Legend:
[1] = biological target: T1, Tyrosine-protein kinase JAK3 (Homo sapiens, UniProt P52333)
T1 sequence (P52333 whole entry): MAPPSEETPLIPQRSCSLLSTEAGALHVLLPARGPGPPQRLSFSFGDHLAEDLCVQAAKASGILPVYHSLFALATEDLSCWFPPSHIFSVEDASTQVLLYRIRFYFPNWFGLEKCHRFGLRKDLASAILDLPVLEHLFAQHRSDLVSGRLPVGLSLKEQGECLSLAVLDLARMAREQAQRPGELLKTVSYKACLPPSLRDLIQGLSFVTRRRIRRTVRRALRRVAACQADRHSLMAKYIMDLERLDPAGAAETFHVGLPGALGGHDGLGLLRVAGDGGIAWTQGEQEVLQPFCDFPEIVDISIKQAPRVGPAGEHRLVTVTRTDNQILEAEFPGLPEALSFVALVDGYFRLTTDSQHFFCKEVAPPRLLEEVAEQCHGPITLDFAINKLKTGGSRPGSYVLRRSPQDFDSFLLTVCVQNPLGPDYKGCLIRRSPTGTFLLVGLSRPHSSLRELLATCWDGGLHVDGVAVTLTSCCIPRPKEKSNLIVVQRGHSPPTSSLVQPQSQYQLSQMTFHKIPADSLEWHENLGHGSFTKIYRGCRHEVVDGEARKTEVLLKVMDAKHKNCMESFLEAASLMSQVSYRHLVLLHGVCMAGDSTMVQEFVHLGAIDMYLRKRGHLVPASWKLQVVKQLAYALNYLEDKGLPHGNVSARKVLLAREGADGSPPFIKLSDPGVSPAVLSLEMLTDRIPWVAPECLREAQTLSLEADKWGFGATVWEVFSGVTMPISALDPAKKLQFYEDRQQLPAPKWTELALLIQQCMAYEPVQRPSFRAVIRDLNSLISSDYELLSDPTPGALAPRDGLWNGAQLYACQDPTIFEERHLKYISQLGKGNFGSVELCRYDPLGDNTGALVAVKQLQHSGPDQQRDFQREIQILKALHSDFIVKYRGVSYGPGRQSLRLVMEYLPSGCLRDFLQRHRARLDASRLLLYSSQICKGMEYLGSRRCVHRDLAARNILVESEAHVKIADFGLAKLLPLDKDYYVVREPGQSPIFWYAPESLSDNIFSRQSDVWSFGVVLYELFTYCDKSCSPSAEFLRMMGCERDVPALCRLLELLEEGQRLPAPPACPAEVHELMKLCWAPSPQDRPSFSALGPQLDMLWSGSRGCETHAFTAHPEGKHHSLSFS
Description: Inhibition of GST-tagged recombinant human cytoplasmic JAK3 expressed in baculovirus using TK-substrate-biotin as substrate preincubated for 5 mins followed by substrate addition after 30 mins by HTRF assay

[2] = species: Homo sapiens; assay: Selectivity ratio of IC50 for human JAK3 expressed in baculovirus to IC50 for human JAK2 expressed in baculovirus
[3] = biological target: Tyrosine-protein kinase JAK2 (Homo sapiens, UniProt O60674)
Description: Inhibition of GST-tagged recombinant human JAK2 expressed in baculovirus using TK-substrate-biotin as substrate preincubated for 5 mins followed by substrate addition after 30 mins by HTRF assay

[4] = biological target: Tyrosine-protein kinase JAK2 (Homo sapiens, UniProt O60674, V617F)
[5] = biological target: Tyrosine-protein kinase SYK (Homo sapiens, UniProt P43405); assay: Inhibition of SYK (unknown origin)

Chain of Tyrosine-protein kinase JAK2 (Homo sapiens, UniProt O60674, V617F) (O60674 whole entry V617F): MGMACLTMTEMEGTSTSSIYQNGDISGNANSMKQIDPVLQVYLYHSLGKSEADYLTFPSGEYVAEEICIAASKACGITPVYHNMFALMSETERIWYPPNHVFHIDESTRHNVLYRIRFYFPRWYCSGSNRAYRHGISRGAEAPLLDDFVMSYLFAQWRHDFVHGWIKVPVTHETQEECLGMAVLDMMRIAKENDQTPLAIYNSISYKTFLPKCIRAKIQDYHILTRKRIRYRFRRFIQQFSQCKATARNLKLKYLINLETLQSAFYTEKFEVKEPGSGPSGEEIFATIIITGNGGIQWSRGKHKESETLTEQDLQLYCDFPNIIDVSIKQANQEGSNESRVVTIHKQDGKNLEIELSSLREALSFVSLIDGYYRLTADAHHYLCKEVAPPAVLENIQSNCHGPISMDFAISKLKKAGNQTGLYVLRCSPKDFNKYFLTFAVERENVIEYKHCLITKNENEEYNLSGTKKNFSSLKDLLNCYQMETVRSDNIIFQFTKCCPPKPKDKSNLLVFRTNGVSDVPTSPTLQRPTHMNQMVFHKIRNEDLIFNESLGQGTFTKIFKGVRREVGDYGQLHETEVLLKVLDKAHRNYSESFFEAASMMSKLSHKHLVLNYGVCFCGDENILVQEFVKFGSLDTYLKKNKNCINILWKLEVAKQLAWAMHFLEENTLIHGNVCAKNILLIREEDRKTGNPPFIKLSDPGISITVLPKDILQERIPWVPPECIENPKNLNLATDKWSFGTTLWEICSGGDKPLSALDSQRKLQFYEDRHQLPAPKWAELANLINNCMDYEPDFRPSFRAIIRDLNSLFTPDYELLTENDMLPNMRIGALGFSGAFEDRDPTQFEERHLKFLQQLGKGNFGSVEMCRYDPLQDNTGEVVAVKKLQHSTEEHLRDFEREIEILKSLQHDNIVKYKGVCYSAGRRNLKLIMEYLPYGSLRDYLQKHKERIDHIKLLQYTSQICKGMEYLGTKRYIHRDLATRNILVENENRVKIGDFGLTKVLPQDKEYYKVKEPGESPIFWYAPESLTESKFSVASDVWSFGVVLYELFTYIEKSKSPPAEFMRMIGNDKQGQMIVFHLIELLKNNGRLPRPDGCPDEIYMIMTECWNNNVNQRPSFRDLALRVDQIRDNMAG
Chain of Tyrosine-protein kinase JAK2 (Homo sapiens, UniProt O60674) (O60674 whole entry): as the sequence (O60674 whole entry V617F) above, with F617V counted along it

Row | Compound | IC50 [1] [nM] | Ratio IC50 [2] | IC50 [3] [nM] | IC50 [4] [µM] | IC50 [5] [nM]
1 | Cc1cnc(Nc2ccc(N3CCOCC3)cc2)nc1-c1cc2cc(COCC(F)(F)F)ccc2o1 | 836 | 32.5 | 25.7 |  | 
2 | CCOC(=O)COc1cccc(Nc2ncc(C)c(-c3cc4ccccc4o3)n2)c1 | 87.6 | 4.6 | 18.9 |  | 
3 | Cc1cnc(Nc2ccc(OCC(=O)O)cc2)nc1-c1cc2ccccc2o1 | 359 | 21.7 | 16.6 |  | 
4 | CCOC(=O)COc1ccc(Nc2ncc(C)c(-c3cc4ccccc4o3)n2)cc1 | 1200 | 3.7 | 324 |  | 
5 | Cc1cnc(Nc2ccc(N3CCOCC3)cc2)nc1-c1cc2ccccc2o1 | 183 |  |  |  | 
6 | CS(=O)(=O)N1CCc2oc(-c3ccnc(Nc4ccc(OCCN5CCCC5)cc4)n3)cc2C1 | 501 | 3.1 | 164 | 1.26 | 
7 | CC1CC(C)CN(c2ccc(Nc3ncc(C(F)(F)F)c(-c4cc5ccc(C#N)cc5o4)n3)cc2)C1 (stereo not drawn) | 5170 | 0.7 | 7090 |  | 
8 | CS(=O)(=O)N1CCc2oc(-c3nc(Nc4ccc(OCCN5CCCC5)cc4)ncc3F)cc2C1 | 176 | 3.2 | 55.4 |  | 
9 | CN1CCN(c2ccc(Nc3nccc(-c4cc5c(o4)CCN(S(C)(=O)=O)C5)n3)cc2)CC1 | 204 |  |  |  | 
10 | N#Cc1ccc2oc(-c3nc(Nc4ccc(N5CCNCC5)cc4)ncc3C(F)(F)F)cc2c1 | 202 | 1.5 | 137 |  | 
11 | COc1cc(Nc2ncc(F)c(-c3cc4c(o3)CCN(S(C)(=O)=O)C4)n2)cc(OC)c1OC | 178 | 18.9 | 9.4 |  | 
12 | CN1CCN(c2ccc(Nc3nccc(-c4cc5c(o4)CCN(C(=O)CC#N)C5)n3)cc2)CC1 | 136 | 2.5 | 53.7 | 7.44 | 
13 | Cc1cnc(Nc2ccc(N3CCOCC3)cc2)nc1-c1cc2c(o1)CCN(S(C)(=O)=O)C2 | 23.2 | 33.1 | 0.7 | 1.25 | 49.8
14 | CS(=O)(=O)N1CCc2oc(-c3ccnc(Nc4ccc(N5CCOCC5)cc4)n3)cc2C1 | 226 | 5.3 | 42.9 |  | 
15 | Cc1cnc(Nc2ccc(/C=C/C(=O)NO)cc2)nc1-c1cc2ccccc2o1 | 1580 | 7 | 226 |  | 
16 | Cc1cnc(Nc2ccc(N3CCOCC3)cc2)nc1-c1cc2cc(C#N)ccc2o1 | 364 | 35 | 10.4 | 3.09 | 
17 | N#CCC(=O)N1CCc2oc(-c3ccnc(Nc4ccc(N5CCOCC5)cc4)n3)cc2C1 | 140 | 10.6 | 13.2 | 5.52 | 

Reference: ChEMBL document CHEMBL3867460, “Identification of 4-(2-furanyl)pyrimidin-2-amines as Janus kinase 2 inhibitors” (Bioorg Med Chem, 2017)
